Source: publication PMC2659691 (Journal of Medicinal Chemistry, 2009)

Assays:
T. brucei TryR = T. brucei TryR (Trypanosoma brucei brucei, UniProt P39051); assay: TryR inhibition, high-throughput microplate assay; type: biochemical
T. cruzi TryR = T. cruzi TryR (Trypanosoma cruzi, UniProt P28593); assay: TryR inhibition, high-throughput microplate assay; type: biochemical
Chain of T. cruzi TryR (P28593 whole entry): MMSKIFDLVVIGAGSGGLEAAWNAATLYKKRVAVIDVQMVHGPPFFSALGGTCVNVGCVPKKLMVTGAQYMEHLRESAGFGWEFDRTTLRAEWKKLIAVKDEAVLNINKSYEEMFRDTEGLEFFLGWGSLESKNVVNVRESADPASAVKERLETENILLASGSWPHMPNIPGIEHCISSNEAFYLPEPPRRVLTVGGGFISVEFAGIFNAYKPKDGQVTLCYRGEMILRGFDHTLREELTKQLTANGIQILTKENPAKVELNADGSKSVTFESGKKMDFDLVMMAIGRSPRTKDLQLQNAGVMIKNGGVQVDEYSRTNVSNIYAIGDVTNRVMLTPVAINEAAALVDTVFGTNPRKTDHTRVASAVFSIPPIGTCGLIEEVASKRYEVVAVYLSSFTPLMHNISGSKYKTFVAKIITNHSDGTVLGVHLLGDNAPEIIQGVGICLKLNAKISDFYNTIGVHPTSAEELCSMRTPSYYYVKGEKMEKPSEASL

Chain of T. brucei TryR (P39051 whole entry): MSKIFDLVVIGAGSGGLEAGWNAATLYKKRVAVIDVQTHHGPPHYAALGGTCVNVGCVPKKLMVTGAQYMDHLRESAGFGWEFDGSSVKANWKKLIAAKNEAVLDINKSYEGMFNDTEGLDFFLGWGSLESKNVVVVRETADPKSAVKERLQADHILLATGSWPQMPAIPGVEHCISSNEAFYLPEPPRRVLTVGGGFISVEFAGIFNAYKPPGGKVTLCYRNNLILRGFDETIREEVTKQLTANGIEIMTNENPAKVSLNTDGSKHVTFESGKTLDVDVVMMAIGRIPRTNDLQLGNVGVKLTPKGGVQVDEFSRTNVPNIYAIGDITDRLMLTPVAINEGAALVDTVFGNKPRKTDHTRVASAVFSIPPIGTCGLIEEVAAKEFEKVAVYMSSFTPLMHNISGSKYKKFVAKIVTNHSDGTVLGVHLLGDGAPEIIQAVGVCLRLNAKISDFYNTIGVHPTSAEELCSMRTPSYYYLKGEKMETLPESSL

SMILES	inhibitory activity against TryR (in words) (T. brucei TryR)	inhibitory activity against TryR (in words) (T. cruzi TryR)
O=C(CN1C(=O)C2CC=CCC2C1=O)Nc1ccccc1Sc1ccc(Cl)cc1 (stereo not shown) [Compound 12]	neither 12 nor 16 displayed significant inhibitory activity	neither 12 nor 16 displayed significant inhibitory activity
O=C(CN1C(=O)NC2(CCCCCC2)C1=O)Nc1ccccc1Sc1ccccc1 [Compound 16]	neither 12 nor 16 displayed significant inhibitory activity	neither 12 nor 16 displayed significant inhibitory activity
